Where two headings read alike, the source gives them in different places.
Experiments:
[1] = Free radical scavenging activity (DPPH) assay; conditions: mean ± S.E (n = 3)
Experimental: The antioxidant activities of all newly synthesized compounds were measured as radical scavenging activities using 1,1-diphenyl-2-picrylhydrazyl (DPPH) (Sigma Chemical Co., Steinheim, Germany) and compared with ascorbic acid as a reference standard (Sigma-Aldrich Chemie GmbH, Taufkirchen, Germany)[46].
Where, 1 mL of the test compounds or ascorbic acid at concentrations (12.5, 25, 50 and 100 mg/mL) were mixed with 1 ml of the DPPH solution. The mixtures were incubated for 30 min at room temperature in dark. The absorbance was read using a JENWAY 6315 spectrophotometer (Keison Products, Chelmsford, England) at 517 nm against blank.
It was carried out in triplicate, and average values were used to determine the inhibitory percentage of DPPH according to the following equation: percent inhibition = [(B − A)/B]*100, where A is the absorbance of the compound or standard and B is the absorbance of blank. IC50 (µM) of each compound was calculated according to the nonlinear regression dose response-inhibition curve using Prism 5.03 (GraphPad, San Diego, CA, USA) and expressed as mean ± standard error (S.E).

irradiated mice [2] = assay: Forced swimming test in irradiated mice; format: in vivo; conditions: 14 at 30 mg/kg/day i.p. for 7 days before 5 Gy irradiation; compared to radiation only
Experimental: (§1) Twenty-one mice were blindly allocated into three groups (n = 7). The first group (control) was injected i.p. with 10% DMSO, daily, for 7 days. The second one (irradiated) was treated as a control, and after 1 h from the last DMSO injection, the mice were exposed to 5 Gy gamma radiation. A third group (Compound 14 + irradiation) received 30 mg/kg/day i.p. (1/10 LD50) of compound 14, daily for 7 days. Then on the last day, after 1 h of injection, animals were irradiated at a dose of 5 Gy. After 24 h. of the last injection, behavioral tests were carried out. Immediately after behavioral test, mice were anesthetized using urethane ([…] i.p.)[49] and sacrificed by cervical dislocation then brain tissues were dissected out, rinsed with ice-cold saline, and dried on a filter paper. Then it was homogenized in ice-cold 0.1 M phosphate buffer saline (pH = 7.4) and stored at – 80 °C for subsequent biochemical analysis.
(§2) All behavioral tests have been carried out under blind conditions to avoid any bias in evaluating the animal's behavior. Mice were allowed to a pre-test session a day before scarification for habituation.
Mice were independently forced to swim in an open cylindrical container (22 cm diameter, 40 cm height) that contained water (23–25 °C).

Glutathione (GSH) = assay: GSH level in brain tissue homogenate of irradiated mice; format: in vivo; conditions: 14 at 30 mg/kg/day i.p. for 7 days, 5 Gy; compared to irradiated mice
Experimental: as §1
(§3) The antioxidant activity of compound 14 was measured by estimation of MPO activity using an ELISA Kit from MyBioSource Cat.No.: CSB-E08723m (Houston, TX., USA) as well as the level of GSH was evaluated using a colorimetric kit according to the method of E. Beutler[52].

Norepinephrine (NE) = assay: Norepinephrine in brain tissue homogenate of irradiated mice (ELISA); format: in vivo; conditions: 14 at 30 mg/kg/day i.p. for 7 days, 5 Gy; Fig. 6B
Experimental: (§4) Twenty-one mice were blindly allocated into three groups (n = 7). The first group (control) was injected i.p. with 10% DMSO, daily, for 7 days. […]. A third group (Compound 14 + irradiation) received 30 mg/kg/day i.p. (1/10 LD50) of compound 14, daily for 7 days. Then on the last day, after 1 h of injection, animals were irradiated at a dose of 5 Gy. After 24 h. of the last injection, behavioral tests were carried out. […]. Then it was homogenized in ice-cold 0.1 M phosphate buffer saline (pH = 7.4) and stored at – 80 °C for subsequent biochemical analysis.
(§5) Brain homogenates were used for measuring AChE using Mouse Acetylcholinesterase (AChE) ELISA Kit content using the Mouse Acetylcholinesterase ELISA Kit from MyBioSource Cat.No. MBS260553 (San Diego, CA., USA) according to the manufacturer’s instructions. The generation of norepinephrine (NE) in brain tissues was measured using an Eliza kit (MBS2600834) from MyBioSource (San Diego, CA, USA) according to the manufacturer’s instructions.

[3] = tested on: Acetylcholinesterase (AChE); assay: AChE in brain tissue homogenate of irradiated mice (ELISA); format: in vivo; conditions: 14 at 30 mg/kg/day i.p. for 7 days, 5 Gy; compared to radiation only
Experimental: as §4, §5

Myeloperoxidase (MPO) = assay: MPO in brain tissue homogenate of irradiated mice (ELISA); format: in vivo; conditions: 14 at 30 mg/kg/day i.p. for 7 days, 5 Gy; compared to irradiated mice
Experimental: as §1, §3

[4] = target: acetylcholine esterase (AChE) (Homo sapiens, UniProt P22303); assay: biochemical
Experimental: The cholinesterase enzymes' inhibitory activity was evaluated using modified Osman et al.[45] method. Briefly, samples were initially dissolved in DMSO to achieve a concentration of 10 mg/mL. Then 0.1 mL of the sample was diluted to 1 mL methanol to reach the concentration of 1 mg/mL (concentration 1). From concentration (1), 0.1 mL was further diluted to 1 mL to reach the concentration of 0.1 mg/mL (concentration 2). Concentration 1 (1 mg/mL) will become 0.1 mg/mL inside the plate and concentration 2 will become 0.01 mg/mL due to the addition of the reagents of the assay that dilute the sample ten folds. […] Then 20 μL of the sample/standard solution was added followed by 140 μL of buffer (1). The mixture was allowed to stand for 15 min at room temperature.

[5] = Acute toxicity study (LD50); conditions: mouse, in vivo, ip; albino male mice, i.p.; read-out: LD50 (median lethal dose)
Experimental: Lethal dose fifty (LD50) was determined for the most promising compound 14 to estimate its acute toxicity in albino male mice. […] Consequently, one-tenth of this dose was selected as the therapeutic dose for further evaluation of the potential radioprotective effects of 14. This was following our previous studies[42],[63],[68].

irradiated mice [6] = assay: Open field test in irradiated mice; format: in vivo; conditions: 14 at 30 mg/kg/day i.p. for 7 days before 5 Gy irradiation
Experimental: as §1, §2
This evaluates locomotors and exploratory activities in mice where, the apparatus is transparent walls and a white floor 30 × 30 × 15 cm, divided into 16 squares of equal area. Each mouse was placed in the center of the open field test apparatus and allowed to roam freely for 5 min and latency time (ie, time taken to start moving) was detected as well as locomotion frequency as ambulation (ie, number of squares crossed), rearing frequency (ie, number of times the mice stand on its hind legs or with its forearm against the wall or in the free air)[50].

[7] = in vitro, mean ± S.E (n = 3), read-out: AChE IC50

Chain of acetylcholine esterase (AChE) (P22303 32-614): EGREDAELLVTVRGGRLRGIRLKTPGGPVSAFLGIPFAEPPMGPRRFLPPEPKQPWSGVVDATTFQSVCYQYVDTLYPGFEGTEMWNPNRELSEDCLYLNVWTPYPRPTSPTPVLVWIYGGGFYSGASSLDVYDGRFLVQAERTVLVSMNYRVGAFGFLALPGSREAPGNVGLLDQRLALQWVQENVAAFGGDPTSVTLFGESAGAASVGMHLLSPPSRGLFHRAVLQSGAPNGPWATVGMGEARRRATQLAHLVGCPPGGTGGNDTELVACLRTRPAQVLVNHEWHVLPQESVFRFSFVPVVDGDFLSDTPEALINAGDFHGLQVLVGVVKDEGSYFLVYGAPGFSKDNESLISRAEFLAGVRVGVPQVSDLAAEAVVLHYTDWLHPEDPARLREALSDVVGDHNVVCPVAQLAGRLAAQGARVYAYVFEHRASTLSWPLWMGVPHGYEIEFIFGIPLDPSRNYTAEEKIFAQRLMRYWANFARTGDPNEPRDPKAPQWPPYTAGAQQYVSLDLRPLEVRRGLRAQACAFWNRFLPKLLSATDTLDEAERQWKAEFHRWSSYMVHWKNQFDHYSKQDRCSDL

Row | SMILES | IC50 [1] [µM] | IC50 [4, 7] [µM] | further results
1 | NS(=O)(=O)c1ccc(-n2c(SCC(=O)Nc3cnccn3)nc3ccc(I)cc3c2=O)cc1 [Compound 14, 2-(6-Iodo-4-oxo-3-(4-sulfamoylphenyl)-3,4-dihydroquinazolin-2-ylthio)-N-(pyrazin-2-yl) acetamide] | 95.5 ± 1.67 | 0.0116 ± 0.00045 | decrease in mean immobility time (forced swimming test) (irradiated mice [2]): 33%; increase in brain GSH levels (Glutathione (GSH)): 17%; Norepinephrine (NE), effect of radiation abolished by (Norepinephrine (NE)): 25%; decrease in brain AChE [3]: 21%; decrease in brain MPO (Myeloperoxidase (MPO)): 39.6%; LD50 [5]: 300 mg/kg; ambulation (open field test), effect of radiation abolished by (irradiated mice [6]): 31%; open field parameters (latency, ambulation, rearing) (irradiated mice [6]): normalized all open field parameters; decrease in latency time (open field test) (irradiated mice [6]; compared with mice that received radiation alone): 72.4%
2 | NS(=O)(=O)c1ccc(-n2c(SCC(=O)NC3CCN(Cc4ccccc4)CC3)nc3ccc(I)cc3c2=O)cc1 [Compound 11, N-(1-Benzylpiperidin-4-yl)-2-(6-iodo-4-oxo-3-(4-sulfamoylphenyl)-3,4-dihydroquinazolin-2-ylthio) acetamide] | 109 ± 1.09 | 0.0239 ± 0.00141 | –
3 | NS(=O)(=O)c1ccc(-n2c(SCC(=O)Nc3c[nH]c(=O)[nH]c3=O)nc3ccc(I)cc3c2=O)cc1 [Compound 15, N-(2,4-Dioxo-1,2,3,4-tetrahydropyrimidin-5-yl)-2-(6-iodo-4-oxo-3-(4-sulfamoylphenyl)-3,4-dihydroquinazolin-2-ylthio) acetamide] | 136.3 ± 1.3 | > 0.1 | –
4 | Cc1cc(NC(=O)CSc2nc3ccc(I)cc3c(=O)n2-c2ccc(S(N)(=O)=O)cc2)no1 [Compound 5, 2-(6-Iodo-4-oxo-3-(4-sulfamoylphenyl)-3,4-dihydroquinazolin-2-ylthio)-N-(5-methylisoxazol-3-yl) acetamide] | 149.8 ± 1.26 | > 0.1 | –
5 | CN1C(=O)c2ccc(NC(=O)CSc3nc4ccc(I)cc4c(=O)n3-c3ccc(S(N)(=O)=O)cc3)cc2C1=O [Compound 17, 2-(6-Iodo 4-oxo-3-(4-sulfamoylphenyl)-3,4-dihydroquinazolin-2-ylthio)-N-(2-methyl-1,3-dioxoisoindolin-5-yl) acetamide] | 127 ± 1.93 | 0.0774 ± 0.00129 | –
6 | O=C1O[C@H]([C@@H](O)CO)C(O)=C1O [Ascorbic acid, ascorbic acid, reference compound] | 112.8 ± 1.03 | – | –
7 | NS(=O)(=O)c1ccc(-n2c(SCC(=O)Nc3nccs3)nc3ccc(I)cc3c2=O)cc1 [Compound 6, 2-(6-Iodo-4-oxo-3-(4-sulfamoylphenyl)-3,4-dihydroquinazolin-2-ylthio)-N-(thiazol-2-yl) acetamide] | 143.4 ± 1.12 | > 0.1 | –
8 | Cn1c(NC(=O)CSc2nc3ccc(I)cc3c(=O)n2-c2ccc(S(N)(=O)=O)cc2)cc(=O)n(C)c1=O [Compound 16, N-(1,3-Dimethyl-2,6-dioxo-1,2,3,6-tetrahydropyrimidin-4-yl)-2-(6-iodo-4-oxo-3-(4-sulfamoylphenyl)-3,4-dihydroquinazolin-2-ylthio) acetamide] | 137.3 ± 0.29 | 0.0862 ± 0.00214 | –
9 | NS(=O)(=O)c1ccc(-n2c(SCC(=O)Nc3nc4ccc([N+](=O)[O-])cc4s3)nc3ccc(I)cc3c2=O)cc1 [Compound 8, 2-(6-Iodo-4-oxo-3-(4-sulfamoylphenyl)-3,4-dihydroquinazolin-2-ylthio)-N-(6-nitrobenzo[d]thiazol-2-yl) acetamide] | 177 ± 1.99 | > 0.1 | –
10 | CCOC(=O)c1ccccc1NC(=O)CSc1nc2ccc(I)cc2c(=O)n1-c1ccc(S(N)(=O)=O)cc1 [Compound 12, Ethyl 2-(2-(6-iodo-4-oxo-3-(4-sulfamoylphenyl)-3,4-dihydroquinazolin-2-ylthio)acetamido)benzoate] | 122.3 ± 0.92 | 0.0607 ± 0.0028 | –
11 | NS(=O)(=O)c1ccc(-n2c(SCC(=O)NN3CCOCC3)nc3ccc(I)cc3c2=O)cc1 [Compound 9, 2-(6-Iodo-4-oxo-3-(4-sulfamoylphenyl)-3,4-dihydroquinazolin-2-ylthio)-N-morpholinoacetamide] | 148 ± 1.53 | > 0.1 | –
12 | CCOc1ccc2nc(NC(=O)CSc3nc4ccc(I)cc4c(=O)n3-c3ccc(S(N)(=O)=O)cc3)sc2c1 [Compound 7, N-(6-Ethoxybenzo[d]thiazol-2-yl)-2-(6-iodo-4-oxo-3-(4-sulfamoylphenyl)-3,4-dihydroquinazolin-2-ylthio) acetamide] | 118.8 ± 0.92 | 0.09 ± 0.00583 | –
13 | CCOC(=O)N1CCC(NC(=O)CSc2nc3ccc(I)cc3c(=O)n2-c2ccc(S(N)(=O)=O)cc2)CC1 [Compound 10, Ethyl 4-(2-(6-iodo-4-oxo-3-(4-sulfamoylphenyl)-3,4-dihydroquinazolin-2-ylthio)acetamido) piperidine-1-carboxylate] | 154.9 ± 1.24 | – | IC50 [4]: > 0.1 µM
14 | CCOC(=O)c1cccc(NC(=O)CSc2nc3ccc(I)cc3c(=O)n2-c2ccc(S(N)(=O)=O)cc2)c1 [Compound 13, Ethyl 3-(2-(6-iodo-4-oxo-3-(4-sulfamoylphenyl)-3,4-dihydroquinazolin-2-ylthio)acetamido)benzoate] | 129.1 ± 1.03 | 0.0748 ± 0.00306 | –

Source: publication PMC10511408, “Novel iodoquinazolinones bearing sulfonamide moiety as potential antioxidants and neuroprotectors” (Scientific Reports, 2023)
